According to PubChem BioAssay AID2305 (GlaxoSmithKline (GSK), 2010):

These compounds were tested on P. falciparum 3D7 growth, pLDH absorbance (assay: blood-stage malaria parasite growth potency – strain 3D7, dose response (AID 2305)).
`CCN1CCN(c2cc(C)c3cc(NC(=O)c4cc(OC)cc(OC)c4)ccc3n2)CC1` showed an IC50 of 0.16 µM. With `COc1ccc(CCn2c(=N)c(C(=O)NCc3cccnc3)cc3c(=O)n4ccccc4nc32)cc1` the IC50 was 0.88 µM. Compound `O=c1ccc2ccc(F)c3c2n1CC3CN1CCC(NCc2cccc(-c3cccs3)c2)CC1` (stereo not given) has an IC50 of 0.83 µM. With `CCOC(=O)c1[nH]c(-c2cc(Cl)nc(Cl)c2)nc1NC(=S)NCCCN1CCOCC1` the IC50 was 0.93 µM. With `COc1ccc(Oc2ccc(-c3c(C)[nH]c(C)cc3=O)cc2)cc1` the IC50 was 0.61 µM. `COc1ccc(-c2cc(-c3nc4ccc(C(=O)N5CCOCC5)cc4[nH]3)c(=O)n(C)c2)cc1OC` showed an IC50 of 0.86 µM. `CC[C@H]1CN2CCc3cc(OC)c(OC)cc3[C@@H]2C[C@@H]1C[C@H]1NCCc2c1cc(OC)c(OC)c2Br` was tested, and the IC50 was 0.65 µM. Compound `O=C(NCC1CC1)C1Cc2c([nH]c3ccc(Br)cc23)C2(CCN(CCc3ccccc3)CC2)N1` (stereo not given) has an IC50 of 0.91 µM. In the case of `c1ccc(Oc2ccc(Nc3ccnc4cc(-c5ccc(CN6CCOCC6)o5)ccc34)cc2)nc1`, the IC50 is reported as 0.91 µM. With `O=C(Nc1ccc(S(=O)(=O)N2CCCCCC2)cc1)c1cc(-c2ccccc2O)n[nH]1` the IC50 was 0.72 µM. Compound `COc1ccc(C(=O)NC2CCN(c3ccnc4cc(Cl)ccc34)C2)cc1` (stereo not given) has an IC50 of 0.23 µM. Compound `O=C(/C=C/c1ccc(Cl)c(Cl)c1)N1CCN(C(=O)Nc2cccc(C(F)(F)F)c2)CC1` has an IC50 of 0.7 µM. Work on `C[C@H](NC(=O)c1c(CN2CCC(N3CCCCC3=O)CC2)c(-c2cccs2)nc2ccccc12)C1CCCCC1` yielded an IC50 of 0.9 µM. `CN1CCc2cc(O)c(NS(=O)(=O)c3ccc(-c4ccc(Cl)cc4)cc3)cc2CC1` gave an IC50 of 0.77 µM. `Cc1ccc(-c2cccc3c(NC(=O)Nc4ccc5nccc(N6CCN(C)CC6)c5c4)cccc23)cn1` showed an IC50 of 0.35 µM. Work on `COc1ccc2nccc([C@@H](O)CN3CCC(NCc4nc5c(F)cccc5[nH]4)CC3)c2c1` yielded an IC50 of 0.47 µM. With `COc1ccc2nccc([C@@H](O)CN3CCC(NS(=O)(=O)c4cc(Br)c(Br)s4)CC3)c2c1` the IC50 was 0.85 µM. In the case of `CNc1c2c(nc3ccc(NC(=O)CCCCCCc4ccccc4)cc13)CCCC2`, the IC50 is reported as 0.92 µM. In the case of `COc1c(C2CCN(CCCCNC(=O)c3cc(-c4ccc(C#N)cc4)n[nH]3)CC2)ccc2c1CCCC2`, the IC50 is reported as 1.16 µM. For `N#Cc1cccc(NC(=O)Nc2ccc3c(c2)CCN(C2CCC2)CC3)c1`, the IC50 was 0.84 µM. `O=[N+]([O-])c1cccc(C=NNc2ccnc3cc(F)ccc23)c1` showed an IC50 of 0.91 µM. `c1ccc(Oc2ccc(Nc3nc(NCCc4cnc[nH]4)nc(NC4CCCC4)n3)cc2)cc1` was tested, and the IC50 was 1.03 µM. For `Cc1cccc2[nH]c(-c3ccc(-c4cccc(NC(=O)Nc5ccc6c(c5)OCO6)c4)cc3)nc12`, the IC50 was 0.74 µM. With `FC(F)(F)c1ccc(COc2cc(Cl)ccc2Cn2ccnc2)cc1` the IC50 was 0.65 µM. For `Cc1cc(CNCC2CCC(CNCCCc3ccccc3)CC2)ccc1O` (stereo not given), the IC50 was 0.87 µM. In the case of `Cc1cc(C2CCN(CCCCNC(=O)c3ccc(NC(=O)c4ccc(Cl)cc4)cc3)CC2)c(C)cc1OC(C)C`, the IC50 is reported as 0.74 µM. For `CCOc1cc(NC(=O)Nc2ccnc3ccccc23)cc(OC)c1`, the IC50 was 0.87 µM. For `NC(N)=Nc1cccc(NC(=O)Nc2cccc(N=C(N)N)c2)c1`, the IC50 was 0.26 µM. For `CCOc1ccc(-c2n[nH]c(C(F)(F)F)c2-c2ccccc2OC)c(O)c1`, the IC50 was 1.14 µM. `COc1ccc(C(=O)Nc2ccc(Nc3nc(C)cc(N(C)C)n3)cc2)c(OC)c1` was tested, and the IC50 was 0.87 µM. Compound `O=C(Cc1cccc(Cl)c1)Nc1cccc(-c2c[nH]c3nc(Nc4cccc(O)c4)ncc23)c1` has an IC50 of 0.73 µM. In the case of `Cc1cc(NCC(C)C)c2[nH]nc(-c3ccccc3)c2n1`, the IC50 is reported as 0.74 µM. Compound `Cc1cccc2[nH]c(-c3ccc(-c4ccc(CNCc5cnn(-c6ccccc6)n5)cc4)s3)nc12` has an IC50 of 0.72 µM. In the case of `NC(=O)c1ccccc1OCC(=O)Nc1cccc(-c2ccc(-c3nc4ccccc4[nH]3)cc2)c1`, the IC50 is reported as 0.79 µM. `CC(C)N(Cc1cnc2nc(N)nc(N)c2n1)c1ccc(Cl)c(Cl)c1` showed an IC50 of 0.16 µM. `O=C(C=Cc1ccccc1O)N1CCC(CN2CCC(c3c[nH]c4ccccc34)CC2)CC1` showed an IC50 of 0.96 µM. With `O=C(Nc1cc(F)cc(F)c1)NC1CCN(CCCCCNC(=O)[C@@H]2C[C@H]2c2ccc(Cl)c(Cl)c2)CC1` the IC50 was 0.75 µM. `Cc1nnsc1C(=O)Nc1cccc(-c2cccc(-c3nc4ccc(C(F)(F)F)cc4[nH]3)c2)c1` was tested, and the IC50 was 0.24 µM. In the case of `CO/N=C(\C)c1ccc2c(c1)CCN(CCC1CCC(NC(=O)c3cccc(-c4noc(C)n4)c3)CC1)CC2` (stereo not given), the IC50 is reported as 0.24 µM. Work on `Cc1cccc2[nH]c(-c3ccc(-c4cccc(CNCc5ccccc5)c4)s3)nc12` yielded an IC50 of 0.74 µM. `COc1ccc(NC(=O)c2cc(NC(=O)C3(N)CC3)c(=O)n(Cc3ccc(C(N)=O)cc3)c2)cc1` showed an IC50 of 0.79 µM. `Nc1cc(-c2cccc(Cl)c2)nn1-c1ccnc2cc(Cl)ccc12` showed an IC50 of 0.75 µM. For `CCCCCCN1CCCN(Cc2ccc(C(=O)Nc3cccc(CC)c3)cc2)CC1`, the IC50 was 0.67 µM. In the case of `CCc1cc(-c2onc(C)c2-c2cc3ccccc3o2)c(O)cc1OC`, the IC50 is reported as 0.97 µM. `CCCCN(CCCC)Cc1cc2ccccc2cc1O` was tested, and the IC50 was 0.35 µM. `NC(=O)C1CCN(Cc2ccc(-c3ccc(-c4nc5ccc(F)cc5[nH]4)cc3)cc2)CC1` showed an IC50 of 0.81 µM. With `COC(=O)c1cccc(CNCc2cccc(-c3csc(-c4nc5ccccc5[nH]4)c3)c2)c1` the IC50 was 0.69 µM. In the case of `CC(C)(C)c1ccc(CN2CCC(CNC(=O)c3cc(-c4ccccc4)nc4ccccc34)CC2)cc1`, the IC50 is reported as 1.02 µM. `N#Cc1ccc(N(CC(=O)NCCc2ccc(F)cc2)CC2CC2)c2ccccc12` was tested, and the IC50 was 0.93 µM. Compound `O=C(/C=C/c1ccc(Cl)c(Cl)c1)NCCCCCN1CCC(NC(=O)c2ccc(F)c(F)c2)CC1` has an IC50 of 0.79 µM. With `CCc1c[nH]c2c(N3CCCS3(=O)=O)cc(C(=O)N[C@@H](Cc3ccccc3)[C@H](O)CNC(C)(C)CCCC(C)C)cc12` the IC50 was 0.67 µM. For `COCCN1CCC(CN(C)CC(C)(C)c2nc(-c3ccc(Cl)c(O)c3)c(-c3ccncc3)[nH]2)CC1`, the IC50 was 1.03 µM. For `CS(=O)(=O)CCNCc1cccc(-c2ccc3c(Nc4ccc(Oc5cccnc5)cc4)ccnc3c2)c1`, the IC50 was 0.14 µM. For `COc1ccc2[nH]cc(C3CCN(CCCCNC(=O)c4ccc(NC(=O)c5ccc(Cl)cc5)cc4)CC3)c2c1`, the IC50 was 1.02 µM. `N#Cc1cccc(C(=O)Nc2cccc(-c3ccc(CN4CCC(O)CC4)cc3)c2)c1` showed an IC50 of 1.3 µM. In the case of `Nc1c2c(nc3ccc(NC(=O)CCCCCCc4ccccc4)cc13)CCCC2`, the IC50 is reported as 0.25 µM. Compound `Clc1ccccc1/C=C/c1cncnc1Nc1ccc2nc(Cc3ccccc3)[nH]c2c1` has an IC50 of 0.92 µM. In the case of `COc1ccc(NC(=S)NC(NC(=O)CF)C(Cl)(Cl)Cl)cc1[N+](=O)[O-]` (stereo not given), the IC50 is reported as 0.48 µM. With `O=C(/C=C/c1ccccc1Cl)NC1CCC(CN2[C@@H]3CC[C@H]2CC(c2c[nH]c4ccccc24)C3)CC1` (stereo not given in full) the IC50 was 0.71 µM. Compound `FC(F)(F)c1cccc2c(NN=Cc3ccccc3)ccnc12` has an IC50 of 0.62 µM. For `NC1CCN(Cc2cccc(-c3ccc(-c4nc5ccccc5[nH]4)s3)c2)C1` (stereo not given), the IC50 was 0.73 µM. Compound `O=C(/C=C/c1ccc(C(F)(F)F)cc1)N1CCc2cc3nccc(N4CCN5CCC[C@H]5C4)c3cc21` has an IC50 of 1.51 µM. With `Cc1ccccc1C1CCN(C2CCC(NC(=O)/C=C/c3cccc(C(F)(F)F)c3)CC2)CC1` (stereo not given) the IC50 was 1.52 µM. Compound `O=C(NCc1cccnc1)C(c1cc2ccccc2o1)N1CCN(C(c2ccccc2)c2ccccc2)CC1` (stereo not given) has an IC50 of 0.71 µM. With `N=C(N)c1ccc(-c2cc(-c3cccc(C(=N)N)c3)on2)cc1` the IC50 was 0.01 µM. Compound `O=C(Nc1cccc(-c2nn3ccccc3c2-c2ccnc(Nc3ccc(-c4cc[nH]n4)cc3)n2)c1)c1c(F)cccc1F` has an IC50 of 0.19 µM. `Cc1nc2ccc(NC(=O)c3cc(S(=O)(=O)N(C)C)ccc3Cl)cc2s1` was tested, and the IC50 was 0.82 µM. In the case of `Cc1ccc(NS(=O)(=O)c2ccc(C(C)N3CCC(N4CCCCC4)CC3)cc2)cc1C` (stereo not given), the IC50 is reported as 0.76 µM. `CCCCCCc1cc(O)c2c3c(c(=O)oc2c1)CCN(C)C3` gave an IC50 of 0.67 µM. In the case of `CC(=O)Nc1cccc(C(=O)Nc2nc3ccc(-c4cc(=O)[nH]c(Nc5ccccc5Cl)n4)cc3[nH]2)c1`, the IC50 is reported as 0.69 µM. In the case of `Cc1cccc2[nH]c(-c3ccc(-c4cccc(CNC5CCN(C)CC5)c4)s3)nc12`, the IC50 is reported as 0.18 µM. Work on `O=C(c1ccc([N+](=O)[O-])o1)N1CCN(c2nc3c(Cl)cccc3s2)CC1` yielded an IC50 of 0.98 µM. For `CCCCCCCN1[C@@H]2CC[C@H]1CC(CCOc1ccnc3ccc(OC)cc13)C2` (stereo not given in full), the IC50 was 0.39 µM. `c1ccc(COc2ccc(Cn3ccc(-c4ccc(-n5ccnc5)cc4)n3)cc2)cc1` (tested in a mixture with another compound) showed an IC50 of 1.02 µM. In the case of `CC(=O)Nc1nc(C(=O)Nc2cccc(-c3cccc(-c4nc5c(C)cccc5[nH]4)c3)c2)cs1`, the IC50 is reported as 0.11 µM. For `c1ccc2c(c1)CN(CC1CCOCC1)CC1(CCN(Cc3c[nH]c4cnccc34)CC1)O2`, the IC50 was 1.55 µM. Compound `CCN(CC)CCN(Cc1ccc(-c2ccc(C(F)(F)F)cc2)cc1)C(=O)Cn1c(CCc2cccc(F)c2F)nc(=O)c2ccc(C)cc21` has an IC50 of 0.67 µM. `C=CC[C@H](C[C@H](O)[C@H](Cc1ccccc1)NC(=O)c1nn(-c2ccccc2)nc1C)C(=O)NC1CCCCC1` gave an IC50 of 0.92 µM. Work on `CC(=O)Nc1nc(C(=O)Nc2cccc(-c3cccc(-c4nc5ccccc5[nH]4)c3)c2)cs1` yielded an IC50 of 0.17 µM. For `Cc1[nH]c(C)c(-c2ccc(Oc3cccc(OC(F)(F)F)c3)cc2)c(=O)c1Br`, the IC50 was 0.02 µM. Work on `Cc1ccc(NC(=O)c2ccc3ncccc3c2)cc1OC1CCN(CCC(C)C)C1` (stereo not given) yielded an IC50 of 0.35 µM. In the case of `CO[C@H](C)[C@H](NC(=O)[C@H](CC(C)C)[C@H](CCC(F)(F)F)N(O)C=O)C(=O)Nc1nccs1`, the IC50 is reported as 0.11 µM. `CC1Cc2ccccc2N1CC(=O)Nc1cc(C(F)(F)F)ccc1-n1cncn1` (stereo not given) gave an IC50 of 0.32 µM. Compound `Cc1cccc2[nH]c(-c3cccc(-c4cccc(C(=O)N5CCCCC5CN5CCC(O)C5)c4)c3)nc12` (stereo not given) has an IC50 of 0.46 µM. `COC(=O)c1ccc(CC(C)NCC(O)c2ccccc2Cl)cc1` (stereo not given) showed an IC50 of 1.01 µM. `O=C(N[C@H]1CCN(Cc2ccc(OCCN3CCNCC3)c3ccccc23)C1)c1ccc(Cl)c(Cl)c1` was tested, and the IC50 was 0.75 µM. Work on `Cc1ccc(NC(=O)c2cc(S(=O)(=O)NC(C)(C)C)ccc2C)nc1` yielded an IC50 of 0.76 µM. For `COc1cccc(Nc2nc(C)cc(NC3CCN(Cc4ccccc4)CC3)n2)c1`, the IC50 was 0.69 µM. `OCCN1CCN(Cc2ccc(-c3cccc(-c4nc5ccccc5[nH]4)c3)cc2)CC1` was tested, and the IC50 was 0.75 µM. `O=C(c1cc(C(=O)NC2CCCCC2)c(=O)n(C2CCCCC2)c1)c1cc(F)ccc1O` showed an IC50 of 0.63 µM. `O=C(Nc1ccc(Cl)cc1)Nc1cccc(-c2ccc(-c3nc4ccc(F)cc4[nH]3)cc2)c1` showed an IC50 of 0.05 µM. `CCCCCOc1ccc(C(O)C(CCC(CN2CCCCCC2)C(O)c2ccc(OCCCCC)cc2)CN2CCCCCC2)cc1` (stereo not given) showed an IC50 of 0.77 µM. Compound `Cc1cc(F)ccc1-c1nc(Nc2ccncc2)c2ccn(C)c2n1` has an IC50 of 0.94 µM. With `O=C(NCCCCCN1CCC(c2c[nH]c3ccccc23)CC1)Nc1ccc(Cl)c(Cl)c1` the IC50 was 0.92 µM. For `FC(F)(F)c1ccc2nc(-c3ccc(-c4ccc(CNCCN5CCNCC5)cc4)cc3)[nH]c2c1`, the IC50 was 1.12 µM.
